Measured values as given in publication doi:10.1101/2021.04.08.439011v1 (biorxiv, 2021).

What was measured:
Details in all cases: 0.1 µM; binder
ACVRL1 = ACVRL1 (Homo sapiens, UniProt P37023)
ASK2 = ASK2 (Homo sapiens, UniProt O95382)
BMPR1B = BMPR1B (Homo sapiens, UniProt O00238)
CDK8 = CDK8 (Homo sapiens, UniProt P49336)
CLK4 = CLK4 (Homo sapiens, UniProt Q9HAZ1)
DDR1 = DDR1 (Homo sapiens, UniProt Q08345)
DDR2 = DDR2 (Homo sapiens, UniProt Q16832)
EPHB4 = EPHB4 (Homo sapiens, UniProt P54760)
FLT4 = FLT4 (Homo sapiens, UniProt P35916)
GRK2 = GRK2 (Homo sapiens, UniProt P25098)
GRK3 = GRK3 (Homo sapiens, UniProt P35626)
GRK3, sequence (P35626 whole entry): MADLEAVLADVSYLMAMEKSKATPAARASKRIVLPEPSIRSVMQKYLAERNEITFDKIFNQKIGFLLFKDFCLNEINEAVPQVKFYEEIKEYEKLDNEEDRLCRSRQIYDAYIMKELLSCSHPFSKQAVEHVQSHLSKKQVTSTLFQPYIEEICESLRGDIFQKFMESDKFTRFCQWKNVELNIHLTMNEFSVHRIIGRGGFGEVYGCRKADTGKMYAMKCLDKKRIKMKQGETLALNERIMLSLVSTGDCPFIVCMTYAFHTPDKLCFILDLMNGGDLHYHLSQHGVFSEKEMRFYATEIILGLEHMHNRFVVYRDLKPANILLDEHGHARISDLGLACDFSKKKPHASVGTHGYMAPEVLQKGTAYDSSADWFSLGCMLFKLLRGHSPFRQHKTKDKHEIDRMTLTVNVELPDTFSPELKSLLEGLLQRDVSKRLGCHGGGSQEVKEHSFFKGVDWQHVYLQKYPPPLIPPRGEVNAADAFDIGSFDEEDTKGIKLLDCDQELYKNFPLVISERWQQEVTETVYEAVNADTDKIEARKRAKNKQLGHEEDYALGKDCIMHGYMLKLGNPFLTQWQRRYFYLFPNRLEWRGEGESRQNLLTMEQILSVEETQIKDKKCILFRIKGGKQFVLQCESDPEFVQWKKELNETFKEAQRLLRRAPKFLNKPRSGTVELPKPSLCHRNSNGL

IRAK4 = IRAK4 (Homo sapiens, UniProt Q9NWZ3)
KIT(V559D,V654A) = KIT(V559D,V654A) (Homo sapiens, UniProt P10721, V559D/V654A)
KIT(V559D,V654A), sequence (P10721 whole entry V559D/V654A): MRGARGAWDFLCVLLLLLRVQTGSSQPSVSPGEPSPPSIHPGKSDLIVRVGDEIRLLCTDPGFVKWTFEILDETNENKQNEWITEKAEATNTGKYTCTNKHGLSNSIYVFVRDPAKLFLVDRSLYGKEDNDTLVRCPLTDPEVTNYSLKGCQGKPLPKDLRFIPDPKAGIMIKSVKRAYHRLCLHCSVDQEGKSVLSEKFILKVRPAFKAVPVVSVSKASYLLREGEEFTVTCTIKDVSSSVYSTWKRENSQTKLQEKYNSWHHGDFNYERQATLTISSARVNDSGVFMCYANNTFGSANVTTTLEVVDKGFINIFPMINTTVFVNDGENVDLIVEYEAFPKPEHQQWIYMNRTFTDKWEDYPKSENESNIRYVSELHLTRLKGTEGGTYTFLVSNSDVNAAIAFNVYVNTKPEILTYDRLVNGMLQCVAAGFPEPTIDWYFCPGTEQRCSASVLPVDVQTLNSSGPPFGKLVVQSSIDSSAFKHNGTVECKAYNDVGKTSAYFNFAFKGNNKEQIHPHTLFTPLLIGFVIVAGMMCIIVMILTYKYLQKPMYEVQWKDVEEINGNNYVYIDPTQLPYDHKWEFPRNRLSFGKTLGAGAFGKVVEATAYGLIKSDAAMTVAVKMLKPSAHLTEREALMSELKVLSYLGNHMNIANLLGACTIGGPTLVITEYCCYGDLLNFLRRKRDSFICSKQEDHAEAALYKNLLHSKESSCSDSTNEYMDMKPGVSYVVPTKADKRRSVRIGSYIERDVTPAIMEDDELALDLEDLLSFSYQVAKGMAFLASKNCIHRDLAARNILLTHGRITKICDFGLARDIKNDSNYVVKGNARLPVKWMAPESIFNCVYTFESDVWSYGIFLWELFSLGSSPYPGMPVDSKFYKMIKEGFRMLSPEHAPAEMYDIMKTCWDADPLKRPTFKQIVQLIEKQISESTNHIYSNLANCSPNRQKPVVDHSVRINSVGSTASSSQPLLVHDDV

LIMK1 = LIMK1 (Homo sapiens, UniProt P53667)
LRRK2 = LRRK2 (Homo sapiens, UniProt Q5S007)
MAP4K2 = MAP4K2 (Homo sapiens, UniProt Q12851)
MATK = MATK (Homo sapiens, UniProt P42679)
MKK7 = MKK7 (Homo sapiens, UniProt O14733)
MYLK = MYLK (Homo sapiens, UniProt Q15746)
NDR2 = NDR2 (Homo sapiens, UniProt Q9Y2H1)
NIM1 = NIM1 (Homo sapiens, UniProt Q8IY84)
PHKG2 = PHKG2 (Homo sapiens, UniProt P15735)
PIK3CA(E545A) = PIK3CA(E545A) (Homo sapiens, UniProt P42336, E545A)
PIK3CD = PIK3CD (Homo sapiens, UniProt O00329)
PIP5K1A = PIP5K1A (Homo sapiens, UniProt Q99755)
PRKG1 = PRKG1 (Homo sapiens, UniProt Q13976)
SYK = SYK (Homo sapiens, UniProt P43405)
TXK = TXK (Homo sapiens, UniProt P42681)
WEE2 = WEE2 (Homo sapiens, UniProt P0C1S8)
WEE2, sequence (P0C1S8 whole entry): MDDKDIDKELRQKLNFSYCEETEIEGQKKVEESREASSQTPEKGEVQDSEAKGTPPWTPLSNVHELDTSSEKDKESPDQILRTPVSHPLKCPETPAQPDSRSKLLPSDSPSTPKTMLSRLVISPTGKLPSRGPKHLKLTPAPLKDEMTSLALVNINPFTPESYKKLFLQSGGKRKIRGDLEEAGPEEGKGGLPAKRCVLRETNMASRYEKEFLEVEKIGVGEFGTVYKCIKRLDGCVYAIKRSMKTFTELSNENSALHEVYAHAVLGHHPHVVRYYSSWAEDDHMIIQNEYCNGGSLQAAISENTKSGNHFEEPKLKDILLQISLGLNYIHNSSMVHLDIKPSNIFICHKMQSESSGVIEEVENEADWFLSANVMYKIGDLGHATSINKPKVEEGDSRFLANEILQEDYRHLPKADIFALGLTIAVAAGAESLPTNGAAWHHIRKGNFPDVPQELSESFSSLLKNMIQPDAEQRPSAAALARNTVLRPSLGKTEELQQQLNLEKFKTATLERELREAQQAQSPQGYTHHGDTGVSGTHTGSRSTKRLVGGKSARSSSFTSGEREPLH

WNK2 = WNK2 (Homo sapiens, UniProt Q9Y3S1)
p38-gamma = p38-gamma (Homo sapiens, UniProt P53778)
p38-gamma, sequence (P53778 whole entry): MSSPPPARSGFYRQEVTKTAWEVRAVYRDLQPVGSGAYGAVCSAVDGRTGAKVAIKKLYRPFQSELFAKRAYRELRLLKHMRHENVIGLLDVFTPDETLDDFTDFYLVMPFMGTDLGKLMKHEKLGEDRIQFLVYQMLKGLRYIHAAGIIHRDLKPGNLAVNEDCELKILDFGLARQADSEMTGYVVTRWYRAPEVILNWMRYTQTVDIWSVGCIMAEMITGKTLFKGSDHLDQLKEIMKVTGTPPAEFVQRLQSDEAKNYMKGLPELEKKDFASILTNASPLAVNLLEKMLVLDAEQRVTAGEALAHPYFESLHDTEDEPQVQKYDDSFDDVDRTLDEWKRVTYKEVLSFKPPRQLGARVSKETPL

DDR2, sequence (Q16832 whole entry): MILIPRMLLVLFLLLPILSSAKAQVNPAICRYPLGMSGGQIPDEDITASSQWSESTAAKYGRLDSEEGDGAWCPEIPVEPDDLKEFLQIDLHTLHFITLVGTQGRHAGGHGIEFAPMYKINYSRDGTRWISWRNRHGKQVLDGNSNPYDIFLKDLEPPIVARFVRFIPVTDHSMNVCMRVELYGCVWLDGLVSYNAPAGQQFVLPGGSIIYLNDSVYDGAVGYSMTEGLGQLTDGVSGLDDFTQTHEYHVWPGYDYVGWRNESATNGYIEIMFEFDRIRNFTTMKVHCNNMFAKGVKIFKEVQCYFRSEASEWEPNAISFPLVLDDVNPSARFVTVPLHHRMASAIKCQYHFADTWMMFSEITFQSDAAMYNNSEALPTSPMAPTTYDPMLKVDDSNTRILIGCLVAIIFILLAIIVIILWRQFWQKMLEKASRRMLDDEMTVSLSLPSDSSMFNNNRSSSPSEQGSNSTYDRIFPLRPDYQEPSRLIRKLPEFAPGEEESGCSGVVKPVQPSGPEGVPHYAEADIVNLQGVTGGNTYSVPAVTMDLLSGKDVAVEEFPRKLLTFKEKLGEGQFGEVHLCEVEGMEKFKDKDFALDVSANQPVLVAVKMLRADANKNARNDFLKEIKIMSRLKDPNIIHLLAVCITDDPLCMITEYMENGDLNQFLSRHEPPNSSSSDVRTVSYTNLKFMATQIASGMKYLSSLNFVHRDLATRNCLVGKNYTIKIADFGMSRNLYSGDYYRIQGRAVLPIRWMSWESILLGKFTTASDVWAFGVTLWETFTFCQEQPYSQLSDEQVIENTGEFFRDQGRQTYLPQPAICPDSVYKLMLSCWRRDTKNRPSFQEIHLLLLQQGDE
EPHB4, sequence (P54760 whole entry): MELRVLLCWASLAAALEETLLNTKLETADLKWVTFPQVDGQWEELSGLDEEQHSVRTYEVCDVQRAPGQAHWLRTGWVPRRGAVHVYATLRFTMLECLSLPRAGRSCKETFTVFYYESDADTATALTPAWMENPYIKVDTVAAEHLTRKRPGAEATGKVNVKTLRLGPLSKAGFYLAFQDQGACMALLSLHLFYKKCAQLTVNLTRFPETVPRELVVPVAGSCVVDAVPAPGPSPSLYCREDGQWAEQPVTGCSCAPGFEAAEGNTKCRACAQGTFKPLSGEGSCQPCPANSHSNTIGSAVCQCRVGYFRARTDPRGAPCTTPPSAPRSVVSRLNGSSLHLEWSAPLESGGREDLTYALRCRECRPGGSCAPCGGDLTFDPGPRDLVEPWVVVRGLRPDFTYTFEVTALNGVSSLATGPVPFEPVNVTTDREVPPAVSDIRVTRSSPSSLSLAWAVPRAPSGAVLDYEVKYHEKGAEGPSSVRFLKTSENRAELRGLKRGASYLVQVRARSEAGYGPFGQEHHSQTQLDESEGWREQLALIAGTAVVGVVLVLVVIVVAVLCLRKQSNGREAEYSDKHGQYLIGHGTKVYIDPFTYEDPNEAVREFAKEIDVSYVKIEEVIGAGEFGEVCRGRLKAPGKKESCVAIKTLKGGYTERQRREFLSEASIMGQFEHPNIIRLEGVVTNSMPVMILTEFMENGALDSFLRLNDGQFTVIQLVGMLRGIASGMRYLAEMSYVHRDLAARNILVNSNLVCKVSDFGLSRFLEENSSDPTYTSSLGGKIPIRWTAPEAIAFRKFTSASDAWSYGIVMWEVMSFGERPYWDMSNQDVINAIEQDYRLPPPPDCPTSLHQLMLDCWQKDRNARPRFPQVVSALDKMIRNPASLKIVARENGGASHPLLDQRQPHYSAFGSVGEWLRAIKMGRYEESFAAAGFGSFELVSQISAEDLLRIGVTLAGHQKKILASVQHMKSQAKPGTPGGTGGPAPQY
CLK4, sequence (Q9HAZ1 whole entry): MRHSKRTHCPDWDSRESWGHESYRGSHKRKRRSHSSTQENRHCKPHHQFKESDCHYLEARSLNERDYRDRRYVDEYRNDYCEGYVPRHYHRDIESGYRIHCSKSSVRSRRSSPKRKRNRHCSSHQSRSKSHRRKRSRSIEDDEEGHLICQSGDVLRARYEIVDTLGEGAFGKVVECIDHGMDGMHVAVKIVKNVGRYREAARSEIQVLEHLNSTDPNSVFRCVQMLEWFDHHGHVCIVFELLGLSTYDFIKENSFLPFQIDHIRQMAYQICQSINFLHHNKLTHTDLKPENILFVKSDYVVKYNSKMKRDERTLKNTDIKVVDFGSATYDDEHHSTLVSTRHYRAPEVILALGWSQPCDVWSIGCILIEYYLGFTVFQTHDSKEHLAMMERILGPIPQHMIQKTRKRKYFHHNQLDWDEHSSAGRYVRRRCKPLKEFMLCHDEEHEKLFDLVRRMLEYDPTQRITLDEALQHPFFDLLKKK

## CNc1ncc2cc(-c3ccc(-c4cccc(C)n4)cc3Cl)c(=O)n(C[C@H]3OC[C@H](N)CO3)c2n1 [compound 6, G-5555]
ACVRL1
  Percent Control: 100%
ASK2
  Percent Control: 100%
BMPR1B
  Percent Control: 95%
CDK8
  Percent Control: 100%
CLK4
  Percent Control: 97%
DDR1
  Percent Control: 100%
DDR2
  Percent Control: 88%
EPHB4
  Percent Control: 100%
FLT4
  Percent Control: 100%
GRK2
  Percent Control: 97%
GRK3
  Percent Control: 83%
IRAK4
  Percent Control: 95%
KIT(V559D,V654A)
  Percent Control: 77%
LIMK1
  Percent Control: 93%
LRRK2
  Percent Control: 83%
MAP4K2
  Percent Control: 63%
MATK
  Percent Control: 100%
MKK7
  Percent Control: 86%
MYLK
  Percent Control: 75%
NDR2
  Percent Control: 100%
NIM1
  Percent Control: 89%
PHKG2
  Percent Control: 100%
PIK3CA(E545A)
  Percent Control: 88%
PIK3CD
  Percent Control: 53%
PIP5K1A
  Percent Control: 48%
PRKG1
  Percent Control: 100%
SYK
  Percent Control: 100%
TXK
  Percent Control: 100%
WEE2
  Percent Control: 100%
WNK2
  Percent Control: 100%
p38-gamma
  Percent Control: 100%
